ChEMBL document CHEMBL1201862, “PubChem BioAssay data set” (2004)
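Interpolation was linear, between the two tested concentrations surrounding the appropriate level; five concentrations were tested over 48 hours in 96-well plates. At the GI50, growth is halved.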 Activity calls are given as the source filed them. No stated cut-off is given here; in the data, active = GI50 up to about 1.1 µM and inactive = higher.

Key:
Assay in all cases: growth of human tumour cells (NCI), 48 h
[1] = tested on: SR
[2] = tested on: OVCAR-3
[3] = tested on: OVCAR-4
[4] = tested on: LOX IMVI
[5] = tested on: UACC-62
[6] = tested on: SK-MEL-5
[7] = tested on: SK-OV-3
[8] = tested on: OVCAR-8
[9] = tested on: SNB-75
[10] = tested on: IGROV-1
[11] = tested on: KM12
[12] = tested on: SNB-19
[13] = tested on: CCRF-CEM
[14] = tested on: RPMI-8226
[15] = tested on: NCI-H226
[16] = tested on: HOP-92
[17] = tested on: SF-268

Measured: GI50

CC(=O)O[C@]1(C)OC(=O)[C@@H](CC(C)C)N1[N+](=O)[O-]
inactive: [1] > 100 µM | [2] > 100 µM | [3] > 100 µM | [4] > 100 µM | [5] > 100 µM | [6] > 100 µM | [7] > 100 µM | [8] > 100 µM | [9] > 100 µM | [10] > 100 µM | [11] > 100 µM | [12] > 100 µM | [13] > 100 µM | [14] > 100 µM | [15] > 100 µM

CCOc1ccc(/N=C\c2cc(OC)c(OC)c(OC)c2)cc1
inactive: [16] > 100 µM | [2] > 100 µM | [17] > 100 µM | [3] > 100 µM | [4] > 100 µM | [5] > 100 µM | [6] > 100 µM | [7] > 100 µM | [8] > 100 µM | [9] 32.4 µM | [10] > 100 µM | [11] > 100 µM | [12] > 100 µM | [13] > 100 µM | [14] 18.2 µM

CC(C)N1CC2CC(CN(C(=O)c3ccccc3)C2)C1.[O-][Cl+3]([O-])([O-])O
inactive: [16] > 100 µM | [2] > 100 µM | [17] > 100 µM | [3] > 100 µM | [4] > 100 µM | [5] > 100 µM | [6] > 100 µM | [7] > 100 µM | [8] > 100 µM | [9] > 100 µM | [10] > 100 µM | [11] > 100 µM | [12] > 100 µM | [13] > 100 µM | [14] > 100 µM | [15] 72.9 µM

Cc1ccccc1NC(=O)C(=O)Cc1nc2ccccc2s1
inactive: [1] > 100 µM | [16] > 100 µM | [2] > 100 µM | [17] > 100 µM | [3] > 100 µM | [4] > 100 µM | [6] > 100 µM | [7] > 100 µM | [8] > 100 µM | [9] > 100 µM | [10] > 100 µM | [11] > 100 µM | [12] > 100 µM | [13] > 100 µM | [15] > 100 µM

COC(=O)c1ccccc1N1C(=O)Cc2ccccc2C1=O
inactive: [1] > 100 µM | [2] 35.6 µM | [17] 55.1 µM | [5] 72.6 µM | [6] > 100 µM | [7] 42.9 µM | [8] 75.9 µM | [9] 21.6 µM | [10] > 100 µM | [11] > 100 µM | [12] > 100 µM | [14] > 100 µM | [15] > 100 µM

CC1=C(/C(C)=N/NC(=O)C(N)=O)Sc2ccccc2N1
inactive: [16] 95.1 µM | [2] > 100 µM | [17] > 100 µM | [3] > 100 µM | [4] > 100 µM | [5] > 100 µM | [6] > 100 µM | [7] > 100 µM | [8] > 100 µM | [9] 65.8 µM | [10] > 100 µM | [11] > 100 µM | [12] > 100 µM | [13] > 100 µM | [14] > 100 µM

O=C(N/C(=C\c1ccc(F)cc1)c1nc2ccccc2[nH]1)c1ccccc1
inactive: [16] 97.1 µM | [2] > 100 µM | [17] > 100 µM | [3] > 100 µM | [4] > 100 µM | [5] > 100 µM | [6] > 100 µM | [7] > 100 µM | [8] > 100 µM | [9] 56 µM | [10] > 100 µM | [11] > 100 µM | [12] > 100 µM | [13] > 100 µM | [14] > 100 µM | [15] > 100 µM

CC1=C(C(=O)Nc2cc(F)c(F)cc2F)C(c2ccc3c(c2)OCO3)C(C(=O)Nc2cc(F)c(F)cc2F)=C(C)N1
inactive: [16] 2.72 µM | [2] 15.7 µM | [17] 23.3 µM | [3] 19.6 µM | [4] 14.4 µM | [6] 19.4 µM | [7] 19.4 µM | [8] 31 µM | [9] 13.1 µM | [10] 28.7 µM | [11] 19.2 µM | [12] 38.4 µM | [13] 19.5 µM | [14] 16 µM | [15] 23.9 µM

O=C(c1ccc(Cl)cc1)c1ccc(OCCCCCCCCCCOc2ccc(C(=O)c3ccc(Cl)cc3)cc2)cc1
inactive: [16] > 100 µM | [2] > 100 µM | [17] > 100 µM | [4] > 100 µM | [5] > 100 µM | [6] > 100 µM | [7] > 100 µM | [8] > 100 µM | [9] > 100 µM | [10] > 100 µM | [11] > 100 µM | [12] > 100 µM | [13] > 100 µM | [14] > 100 µM | [15] > 100 µM

COC(=O)C1=C(C(=O)OC)C2C=CC1C1C(Cl)=C(Cl)C21 (centres undefined)
inactive: [16] 40.1 µM | [2] > 100 µM | [17] > 100 µM | [3] > 100 µM | [4] > 100 µM | [5] > 100 µM | [6] 88.7 µM | [7] > 100 µM | [8] > 100 µM | [9] > 100 µM | [10] > 100 µM | [11] > 100 µM | [13] > 100 µM | [14] > 100 µM

C1CCOC2(CCC3(CC2)OCCCCO3)OC1
inactive: [1] > 100 µM | [17] > 100 µM | [3] > 100 µM | [5] > 100 µM | [6] > 100 µM | [7] > 100 µM | [8] > 100 µM | [9] > 100 µM | [10] > 100 µM | [11] > 100 µM | [12] > 100 µM | [13] > 100 µM | [14] > 100 µM | [15] > 100 µM

Cn1c2ccccc2c2[nH]cc3nc4ccccc4c-3c21
inactive: [16] 27.2 µM | [2] 17.1 µM | [17] 22.8 µM | [3] 15.6 µM | [4] 21.3 µM | [5] 18.5 µM | [6] 18.1 µM | [7] 24.3 µM | [8] 20.3 µM | [9] 19.5 µM | [10] 18 µM | [11] 17 µM | [12] 26.1 µM | [13] 30.8 µM | [14] 19.2 µM | [15] 22.4 µM

COc1ccc(C2Cc3cc(OC)c(OC)c(OC)c3C2)cc1 (centres undefined)
inactive: [2] 38.8 µM | [17] 47.1 µM | [3] 59.6 µM | [4] 56.8 µM | [5] 66.1 µM | [6] 16.3 µM | [7] > 100 µM | [8] 48.5 µM | [9] 24.2 µM | [10] > 100 µM | [11] 23 µM | [12] 55.6 µM | [13] 32.6 µM | [14] 18.8 µM | [15] 34.9 µM
